# Tests used:
# Type in all cases: in vivo
# wheat (Norin 61) [1] = test: Test Example 1: wheat seeds on filter paper under 125 mM sodium chloride salt stress; conditions: for Foliage Length / Root Length / Root Number of roots / Foliage Recovery percentage / Root Recovery percentage: after 6 days; for Foliage Length / Root Length / Root Number of roots: average of six seeds; for Foliage Recovery percentage / Root Recovery percentage: relative to Comparative Examples 1a and 1b
# Procedure: A flowable agent containing 10% of the compound of formula (I)-1 was diluted 103 times and 104 times with water to obtain chemical solution 1a and chemical solution 1b, respectively.
# (§1) Eight layers of filter paper were placed at the center of a laboratory dish, and seeds (six seeds) of wheat (Norin 61) were placed on the filter paper. Four of these were prepared.
# (1) 125 mM sodium chloride and 10 mL of chemical solution 1a were poured into the laboratory dish (Example 1a).
# (2) 125 mM sodium chloride and 10 mL of chemical solution 1b were poured into the laboratory dish (Example 1b).
# (3) 125 mM sodium chloride and 10 mL of water were poured into the laboratory dish (Comparative Example 1a).
# (4) 10 mL of water was poured into the laboratory dish (Comparative Example 1b).
# Each laboratory dish was placed in a growth chamber set at 25° C. and light/dark=16/8. After 6 days, the number of roots, the root length, and the foliage length were measured for six seeds in each of (1) to (4).
# The recovery percentage was calculated from the following equation:
# [formula] • X: Chemical treatment, sodium chloride applied • Y: No chemical treatment, sodium chloride applied • Z: No chemical treatment, no sodium chloride treatment
# corn (P2307) = test: Test Example 2: corn seeds on filter paper under 125 mM sodium chloride salt stress
# Procedure: A flowable agent containing 10% of the compound of formula (I)-1 was diluted 106 times with water to obtain chemical solution 2a.
# Eight layers of filter paper were placed at the center of a laboratory dish, and seeds (five seeds) of corn (P2307) were placed on the filter paper. Four of these were prepared.
# (1) 125 mM sodium chloride and 10 mL of chemical solution 2a were poured into the laboratory dish (Example 2a).
# (2) 125 mM sodium chloride and 10 ml of water were poured into the laboratory dish (Comparative Example 2a).
# (3) 10 mL of water was poured into the laboratory dish (Comparative Example 2b).
# Each laboratory dish was placed in a growth chamber set at 25° C. and light/dark=16/8. After 4 days, the number of roots, the root length, and the foliage length were measured for five seeds in each of (1) to (3). The recovery percentage was calculated in the same manner as in Test Example 1.
# wheat (Norin 61) [2] = test: Test Example 3: wheat seeds on filter paper under 125 mM sodium chloride salt stress; conditions: for Foliage Length / Root Length / Root Number of roots / Foliage Recovery percentage / Root Recovery percentage: after 4 days; for Foliage Recovery percentage / Root Recovery percentage: relative to Comparative Examples 3a and 3b
# Procedure: A flowable agent containing 10% of the compound of formula (I)-1 was diluted 105 times and 107 times with water to obtain chemical solution 3a and chemical solution 3b, respectively.
# as §1
# (1) 125 mM sodium chloride and 10 mL of chemical solution 2a were poured into the laboratory dish (Example 3a).
# (2) 125 mM sodium chloride and 10 mL of chemical solution 2b were poured into the laboratory dish (Example 3b).
# (3) 125 mM sodium chloride and 10 ml of water were poured into the laboratory dish (Comparative Example 3a).
# (4) 10 mL of water was poured into the laboratory dish (Comparative Example 3b).
# Each laboratory dish was placed in a growth chamber set at 25° C. and light/dark=16/8. After 4 days, the number of roots, the root length, and the foliage length were measured for five seeds in each of (1) to (4). The recovery percentage was calculated in the same manner as in Test Example 1.
# [3] = system: rice (Koshihikari: Oryza sativa); test: Test Example 4: rice in Wagner pots under submerged conditions with sodium chloride aqueous solution
# Procedure: In the middle of June, Arakidatsuchi (2 mm sieved, Akagi Engei) was placed in a Wagner pot (1/5000 a), and five grains of dried seed rice (Koshihikari: Oryza sativa) were sown at the center of the Wagner pot at a sowing depth of 3 mm to 5 mm, thus starting raising by direct seeding under submerged conditions. Individuals except for one well-grown individual from which 2 to 3 tillers appeared were cut for thinning with scissors on the 28th day after sowing. Ten pots of these were prepared.
# Midseason drainage was performed on the 47th to 49th day after sowing. A flowable agent containing 10% of the compound of formula (I)-1 was diluted 103 times with water to obtain chemical solution 4. […]
# The number of withered, dead stems, the number of rolled leaves, the number of crown roots, the amount of water decrease, and the length of leaf tip blight were measured on the 68th day after sowing. […]
# The plant height, the number of stems, the culm length, the number of ears, the ear length, the number of whitened unhulled rice grains, the leaf color of flag leaves, and the numbers of flag leaf blights and withered, dead leaves were measured in the heading period or after. […]
# The culm length, the number of ears, the ear length, the number of whitened unhulled rice grains, the leaf color of flag leaves, and the numbers of flag leaf blights and withered, dead leaves were measured on the 106th day after sowing. […]
# [4] = system: edible corn (Idaho Sweet 88); test: Test Example 5: corn pot test, 8 g/L sodium chloride solution poured over soil; conditions: 8 g/L NaCl
# Procedure: (§2) (1) Example 5a: 8 g/L sodium chloride solution and chemical solution 5a were poured.
# (§3) (2) Comparative Example 5a: 8 g/L sodium chloride solution and water were poured.
# (§4) (3) Comparative Example 5b: Water was poured.
# (§5) Plastic pots were filled with Kannami soil, and seeds of edible corn (Idaho Sweet 88) and soybean (Enrei) were sowed in their respective pots, three seeds for each pot (3 cm in depth). Each test was repeated three times. The plants were grown with subirrigation in a greenhouse.
# (§6) A flowable agent containing 5% of the compound of formula (I)-1 was diluted 103 times with water to prepare chemical solution 5, and 17.3 mL of this chemical solution was poured for each pot on the 8th day after sowing (only Example 5a).
# (§7) After the chemical treatment, with a pot without holes placed at the bottom, tap water was misted from above on weekends and holidays, and 50 mL of tap water was poured over the soil for each pot every weekday.
# (§8) From the 11th day after sowing, 8 g/L sodium chloride solution was poured over the soil, 50 mL for each pot, every day (only Example 5a and Comparative Example 5a).
# (§9) On the 19th day after sowing, the largest root length (cm), the plant height (cm), and the top and root dry weights (g) were measured.
# soybean (Enrei) = test: Test Example 5: soybean pot test, 8 g/L sodium chloride solution poured over soil; conditions: 8 g/L NaCl
# Procedure: as §2, §3, §4, §5, §6, §7, §8, §9
# [5] = system: wheat (variety: Kitahonami); test: Test Example 6: wheat pot test, 8 g/L sodium chloride solution poured over soil; conditions: 8 g/L NaCl
# Procedure: (1) Example 6a: 8 g/L sodium chloride solution and chemical solution 6a were poured.
# (2) Comparative Example 6a: 8 g/L sodium chloride solution and water were poured.
# (3) Comparative Example 6b: Water was poured.
# Plastic pots were filled with Kannami soil, and five seeds of wheat (variety: Kitahonami) were sowed at the center of each pot (3 cm in depth). Each test was repeated three times.
# After sowing, the pots were allowed to stand in a growth chamber (20° C. dark room) for 4 days and then moved to a greenhouse.
# A flowable agent containing 5% of a compound of formula (I)-1 was diluted 103 times with water to prepare chemical solution 6, and 17.3 mL of this chemical solution was poured for each pot on the 7th day after sowing (only Example 6a).
# From the 10th day after sowing, 8 g/L sodium chloride solution was poured over the soil, 30 mL for each pot, once a day (only Example 6a and Comparative Example 6a).
# On the 17th day after sowing, the largest root length (cm), the number of rooted individuals, the plant height (cm), and the top and root dry weights (g) were measured.
# [6] = 125 mM sodium chloride + 10 mL chemical solution 1a (10% flowable diluted 103 times)
# [7] = 125 mM sodium chloride + 10 mL chemical solution 1b (10% flowable diluted 104 times)
# [8] = 125 mM sodium chloride + chemical solution 1a (diluted 103 times)
# [9] = 125 mM sodium chloride + chemical solution 1b (diluted 104 times)
# [10] = 125 mM sodium chloride salt stress, vs salt stress without the compound
# [11] = 125 mM sodium chloride + 10 mL chemical solution 2a (10% flowable diluted 106 times), after 4 days, average of five seeds
# [12] = 125 mM sodium chloride + chemical solution 2a (diluted 106 times), after 4 days, relative to Comparative Examples 2a and 2b
# [13] = 125 mM sodium chloride + 10 mL chemical solution 3a (10% flowable diluted 105 times; b105 prints chemical solution 2a)
# [14] = 125 mM sodium chloride + 10 mL chemical solution 3b (10% flowable diluted 107 times; b106 prints chemical solution 2b)
# [15] = 125 mM sodium chloride + chemical solution 3a (diluted 105 times)
# [16] = 125 mM sodium chloride + chemical solution 3b (diluted 107 times)
# [17] = 5% flowable diluted 103 times, 19th day after sowing
# [18] = 17.3 mL per pot of 5% flowable diluted 103 times on 8th day, measured 19th day after sowing
# [19] = vs salt stress without the compound
# [20] = 5% flowable diluted 103 times, 17th day after sowing
# [21] = 17.3 mL per pot of 5% flowable diluted 103 times on 7th day, measured 17th day after sowing
smiles,measurement,setting,value
Cn1nnnc1C(=NOCc1cccc(NC(=O)OC(C)(C)C)n1)c1ccccc1 [compound of formula (I)-1],Foliage Length,wheat (Norin 61) [1]; [6],68.8 mm
same,Root Length,wheat (Norin 61) [1]; [6],49.6 mm
same,Root Number of roots,wheat (Norin 61) [1]; [6],5.6
same,Foliage Length,wheat (Norin 61) [1]; [7],64.2 mm
same,Root Length,wheat (Norin 61) [1]; [7],50.2 mm
same,Root Number of roots,wheat (Norin 61) [1]; [7],5.2
same,Foliage Recovery percentage,wheat (Norin 61) [1]; [8],31.0%
same,Root Recovery percentage,wheat (Norin 61) [1]; [8],8.1%
same,Foliage Recovery percentage,wheat (Norin 61) [1]; [9],15.8%
same,Root Recovery percentage,wheat (Norin 61) [1]; [9],9.1%
same,Recovery compared with Comparative Example 1a (in words),wheat (Norin 61) [1]; [10],more recovery
same,Foliage Length,corn (P2307); [11],17.2 mm
same,Root Length,corn (P2307); [11],38.6 mm
same,Root Number of roots,corn (P2307); [11],5.2
same,Foliage Recovery percentage,corn (P2307); [12],28.3%
same,Root Recovery percentage,corn (P2307); [12],33.8%
same,Recovery compared with Comparative Example 2a (in words),corn (P2307); [10],more recovery
same,Foliage Length,wheat (Norin 61) [2]; [13],23.3 mm
same,Root Length,wheat (Norin 61) [2]; [13],30.8 mm
same,Root Number of roots,wheat (Norin 61) [2]; [13],4.0
same,Foliage Length,wheat (Norin 61) [2]; [14],25.0 mm
same,Root Length,wheat (Norin 61) [2]; [14],29.0 mm
same,Root Number of roots,wheat (Norin 61) [2]; [14],4.0
same,Foliage Recovery percentage,wheat (Norin 61) [2]; [15],0.0%
same,Root Recovery percentage,wheat (Norin 61) [2]; [15],41.8%
same,Foliage Recovery percentage,wheat (Norin 61) [2]; [16],0.0%
same,Root Recovery percentage,wheat (Norin 61) [2]; [16],19.0%
same,Recovery in the root compared with Comparative Example 3a (in words),wheat (Norin 61) [2]; [10],more recovery in the root
same,"Growth and yield measurements, effect of chemical treatment (in words)","[3]; 2 g/L sodium chloride aqueous solution, 28 g ai per 10 a under submerged conditions",same effect was observed
same,Growth and yield measurements compared with Comparative Example 4a (in words),"[3]; 10 g/L sodium chloride aqueous solution, chemical solution 4, 56 mL per pot, 280 g ai per 10 a, on 50th day after sowing, FIGS. 1 to 14",better values
same,Plant height Corn A: number relative to 100 of Comparative Example 5b,[4]; [17],91
same,Root dry weight Corn A: number relative to 100 of Comparative Example 5b,[4]; [17],90
same,Root length Corn A: number relative to 100 of Comparative Example 5b,[4]; [17],96
same,Top dry weight Corn A: number relative to 100 of Comparative Example 5b,[4]; [17],83
same,Plant height Corn,[4]; [18],37.0 cm
same,Root dry weight Corn,[4]; [18],0.10 g
same,Root length Corn,[4]; [18],17.3 cm
same,Top dry weight Corn,[4]; [18],0.40 g
same,Corn values compared with Comparative Example 5a (in words),[4]; [19],better values
same,Plant height Soybean A: number relative to 100 of Comparative Example 5b,soybean (Enrei); [17],101
same,Root dry weight Soybean A: number relative to 100 of Comparative Example 5b,soybean (Enrei); [17],72
same,Root length Soybean A: number relative to 100 of Comparative Example 5b,soybean (Enrei); [17],105
same,Top dry weight Soybean A: number relative to 100 of Comparative Example 5b,soybean (Enrei); [17],91
same,Plant height Soybean,soybean (Enrei); [18],48.3 cm
same,Root dry weight Soybean,soybean (Enrei); [18],0.15 g
same,Root length Soybean,soybean (Enrei); [18],14.3 cm
same,Top dry weight Soybean,soybean (Enrei); [18],0.72 g
same,Soybean values compared with Comparative Example 5a (in words),soybean (Enrei); [19],better values
same,Largest root length Wheat A: number relative to 100 of Comparative Example 6b,[5]; [20],100
same,Number of rooted individuals Wheat A: number relative to 100 of Comparative Example 6b,[5]; [20],104
same,Plant height Wheat A: number relative to 100 of Comparative Example 6b,[5]; [20],98
same,Root dry weight Wheat A: number relative to 100 of Comparative Example 6b,[5]; [20],94
same,Top dry weight Wheat A: number relative to 100 of Comparative Example 6b,[5]; [20],96
same,Largest root length Wheat,[5]; [21],18.3 cm
same,Number of rooted individuals Wheat,[5]; [21],8.0 Number
same,Plant height Wheat,[5]; [21],29.3 cm
same,Root dry weight Wheat,[5]; [21],0.034 g
same,Top dry weight Wheat,[5]; [21],0.059 g
same,"Number of rooted individuals, plant height and root dry weight compared with Comparative Example 6a (in words)",[5]; [19],better

# Source: patent publication US20250151729A1, “METHOD FOR REDUCING OR PREVENTING EFFECT OF SALT STRESS ON PLANT” (NIPPON SODA CO., LTD, priority 2022, published 2025)
